Earlier results in patent publication US20240261294A1, “METHOD FOR TREATING IDH INHIBITOR-RESISTANT SUBJECTS” (Eli Lilly and Company, priority 2021, published 2024).

System: IDH2-Q316E and IDH2-1319M
Details: preclinical studies; cited from earlier work

Question: Which “binding and inhibition of the mutant enzymes” value does the source give for `CC(C)(O)CNc1nc(Nc2ccnc(C(F)(F)F)c2)nc(-c2cccc(C(F)(F)F)n2)n1` [enasidenib] here?
Answer: no longer able to bind and inhibit the mutant enzymes
